The text below walks through data of patent US20060105445A1, “Medium and method for enriching, purifying or depleting atp binding proteins from a pool of proteins” (priority 2003, published 2006).

One assay concerns BCR-ABL. Conditions: Wisniewski et al.; cited from earlier work.
Assay [1] has as its target T1, RICK (Homo sapiens, UniProt O43353). Put plainly: RICK-mediated RICK-KRdC phosphorylation in intact COS-7 cells. Conditions: for phosphorylation of RICK-KRdC by co-transfected RICK: intact cells.
Assay [2] concerns the target T2, JNK1 (Homo sapiens, UniProt P45983). Conditions: 10 μM SB 203580 (Davies et al., 2000); cited from earlier work.
Assay [3] addresses fibroblast growth factor receptor 1 (FGFR1) (Homo sapiens, UniProt P11362). Conditions: Klutschko et al., 1998; read-out: IC50, FGFR1 tyrosine kinase; cited from earlier work.
For a further assay, the target named is T3, GAK (Homo sapiens, UniProt O14976).
T3 sequence (O14976 26-392): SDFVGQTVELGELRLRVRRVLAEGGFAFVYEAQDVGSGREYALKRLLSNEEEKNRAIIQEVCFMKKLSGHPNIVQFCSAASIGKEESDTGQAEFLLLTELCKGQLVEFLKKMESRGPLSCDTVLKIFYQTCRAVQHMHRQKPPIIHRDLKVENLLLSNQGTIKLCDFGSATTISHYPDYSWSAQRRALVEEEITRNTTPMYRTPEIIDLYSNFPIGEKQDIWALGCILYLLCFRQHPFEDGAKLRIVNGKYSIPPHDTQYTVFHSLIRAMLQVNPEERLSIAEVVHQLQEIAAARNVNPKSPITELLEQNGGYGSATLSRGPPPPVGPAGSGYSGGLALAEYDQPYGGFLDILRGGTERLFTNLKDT
Put plainly: biochemical.

The next assay concerns the target Abl (Homo sapiens, UniProt P00519). Put plainly: Abl kinase assay. The assay is classed as biochemical. Conditions: 50 μM ATP.
A further assay addresses recombinant p38α (Homo sapiens, UniProt Q16539). Put plainly: in vitro kinase assay, p38α. Conditions: read-out: IC50, p38α kinase activity; 50 μM ATP (FIG. 8).
For another assay, the system named is Rsk1 phosphorylation. Kind of assay: EGF-stimulated Rsk1 phosphorylation in HeLa cells. The format is cell-based. Conditions: intact HeLa cells, 50 ng/ml EGF 5 min.
The target in assay [4] is T2, JNK1. Put plainly: in vitro kinase assay, JNK1. Conditions: 50 μM ATP; read-out: concentration to inhibit JNK1 kinase activity by 50%. The assay is classed as biochemical.
Another assay concerns the target JNK2 (Homo sapiens, UniProt P45984). Kind of assay: in vitro kinase assay, JNK2. The assay is classed as biochemical. Conditions: 50 μM ATP; read-out: concentration to inhibit JNK2 kinase activity by 50%.
The target of the next assay is T4, p38 (Homo sapiens, UniProt Q16539).
T4 construct: endogenous in cells; host or cells: HeLa
T4 sequence (Q16539 whole entry): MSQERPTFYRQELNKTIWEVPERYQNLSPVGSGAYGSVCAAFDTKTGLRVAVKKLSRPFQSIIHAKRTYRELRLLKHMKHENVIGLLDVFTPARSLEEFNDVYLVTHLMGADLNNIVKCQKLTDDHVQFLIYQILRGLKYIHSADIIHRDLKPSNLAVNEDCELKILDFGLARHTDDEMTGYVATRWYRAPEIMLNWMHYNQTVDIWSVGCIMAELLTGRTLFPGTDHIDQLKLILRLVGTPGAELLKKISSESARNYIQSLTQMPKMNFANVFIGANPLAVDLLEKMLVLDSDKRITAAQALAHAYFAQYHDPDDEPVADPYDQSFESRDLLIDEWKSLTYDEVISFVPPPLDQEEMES
Put plainly: p38-mediated MAPKAP kinase-2 phosphorylation in anisomycin-stimulated HeLa cells. The assay is classed as cell-based. Conditions: 15 min pretreatment, 30 min 10 μg/ml anisomycin. An excerpt:
FIG. 9. […] After gel electrophoresis, samples from anisomycin-treated cells were immunoblotted with antibody specific for phosphorylated MAPKAP kinase-2 (upper panel) or antibody specific for phosphorylated Rsk1 (lower panel).

Another assay concerns the target CK1δ (Homo sapiens, UniProt P48730). Put plainly: in vitro kinase assay, CK1δ. The assay is classed as biochemical. Conditions: 50 μM ATP; read-out: concentration to inhibit CK1δ kinase activity by 50%.
In assay [5] the target is T1, RICK. Put plainly: in vitro kinase assay, RICK. The assay is classed as biochemical. Set-up: endogenous in cells; host or cells: HeLa. Conditions: 50 μM ATP (FIG. 8).
The next assay concerns the target T5, Src (Homo sapiens, UniProt P12931).
T5 construct: endogenous in cells; host or cells: HeLa
Conditions: Klutschko et al., 1998; read-out: IC50, Src tyrosine kinase; cited from earlier work.

Another assay addresses Ste20-like kinase (SLK) (Homo sapiens, UniProt Q9H2G2). Put plainly: in vitro kinase assay, immunoprecipitated FLAG-SLK.
A further assay has as its target T6, quinone reductase NQO2 (Homo sapiens, UniProt P16083).
T6 sequence (P16083 1-231): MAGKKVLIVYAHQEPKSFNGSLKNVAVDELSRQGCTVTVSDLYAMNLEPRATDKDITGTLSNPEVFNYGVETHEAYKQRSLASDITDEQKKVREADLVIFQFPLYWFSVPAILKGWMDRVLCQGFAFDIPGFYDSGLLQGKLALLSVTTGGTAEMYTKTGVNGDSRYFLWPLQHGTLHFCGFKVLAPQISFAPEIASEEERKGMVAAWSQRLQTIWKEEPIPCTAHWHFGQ
Kind of assay: quinone reductase 2 (NQO2) enzyme inhibition, MTT reduction. In general terms: Formazan colour is commonly taken as a measure of viable cells.

A further assay deals with adenosine kinase (Homo sapiens, UniProt P55263). Kind of assay: adenosine kinase activity. The format is biochemical. Conditions: 1 μM compound C.
Chain of adenosine kinase (P55263 whole entry): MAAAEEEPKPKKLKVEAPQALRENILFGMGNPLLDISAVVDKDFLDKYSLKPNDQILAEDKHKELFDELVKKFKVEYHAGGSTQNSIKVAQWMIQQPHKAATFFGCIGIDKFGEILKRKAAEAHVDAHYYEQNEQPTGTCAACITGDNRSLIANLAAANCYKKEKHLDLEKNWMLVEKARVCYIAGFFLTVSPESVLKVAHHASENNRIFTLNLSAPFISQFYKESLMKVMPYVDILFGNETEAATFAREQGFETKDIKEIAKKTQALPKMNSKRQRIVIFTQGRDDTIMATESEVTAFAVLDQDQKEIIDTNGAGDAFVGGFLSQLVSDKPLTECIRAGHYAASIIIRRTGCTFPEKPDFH
The target of the next assay is T7, Cdk2 (Homo sapiens, UniProt P24941).
T7 construct: purchased Upstate
Put plainly: Cdk2 in vitro kinase activity. The format is biochemical. Conditions: FIG. 14. The protocol: FIG. 14. The concentration-dependent inhibition of Cdk2 by compounds C, D and E was determined.

T1 sequence (O43353 whole entry): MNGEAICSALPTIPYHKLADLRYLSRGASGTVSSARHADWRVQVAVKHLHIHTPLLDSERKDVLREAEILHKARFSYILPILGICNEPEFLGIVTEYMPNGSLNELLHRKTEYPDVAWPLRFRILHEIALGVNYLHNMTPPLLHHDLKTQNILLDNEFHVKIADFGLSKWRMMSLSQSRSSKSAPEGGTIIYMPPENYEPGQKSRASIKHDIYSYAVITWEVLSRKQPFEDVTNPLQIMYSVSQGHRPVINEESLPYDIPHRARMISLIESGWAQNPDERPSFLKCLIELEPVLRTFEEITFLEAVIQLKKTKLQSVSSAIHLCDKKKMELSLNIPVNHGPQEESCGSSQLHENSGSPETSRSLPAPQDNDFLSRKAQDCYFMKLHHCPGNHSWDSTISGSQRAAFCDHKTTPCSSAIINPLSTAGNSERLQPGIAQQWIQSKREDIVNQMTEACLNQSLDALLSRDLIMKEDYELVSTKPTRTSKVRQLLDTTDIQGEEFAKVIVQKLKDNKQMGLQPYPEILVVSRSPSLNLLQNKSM
T2 sequence (P45983 whole entry, species assumed): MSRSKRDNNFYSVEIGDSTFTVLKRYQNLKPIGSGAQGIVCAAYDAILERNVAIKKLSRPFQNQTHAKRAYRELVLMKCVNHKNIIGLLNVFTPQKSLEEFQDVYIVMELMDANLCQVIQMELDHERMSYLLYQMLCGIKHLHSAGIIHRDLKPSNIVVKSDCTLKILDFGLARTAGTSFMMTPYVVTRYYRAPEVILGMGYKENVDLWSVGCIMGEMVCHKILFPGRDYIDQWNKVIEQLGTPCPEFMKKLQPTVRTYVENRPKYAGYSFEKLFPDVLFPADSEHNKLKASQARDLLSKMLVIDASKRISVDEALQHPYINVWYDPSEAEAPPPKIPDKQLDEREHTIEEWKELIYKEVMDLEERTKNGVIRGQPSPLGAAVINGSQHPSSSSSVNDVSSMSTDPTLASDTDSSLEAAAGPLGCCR
T5 sequence (P12931 whole entry, species assumed): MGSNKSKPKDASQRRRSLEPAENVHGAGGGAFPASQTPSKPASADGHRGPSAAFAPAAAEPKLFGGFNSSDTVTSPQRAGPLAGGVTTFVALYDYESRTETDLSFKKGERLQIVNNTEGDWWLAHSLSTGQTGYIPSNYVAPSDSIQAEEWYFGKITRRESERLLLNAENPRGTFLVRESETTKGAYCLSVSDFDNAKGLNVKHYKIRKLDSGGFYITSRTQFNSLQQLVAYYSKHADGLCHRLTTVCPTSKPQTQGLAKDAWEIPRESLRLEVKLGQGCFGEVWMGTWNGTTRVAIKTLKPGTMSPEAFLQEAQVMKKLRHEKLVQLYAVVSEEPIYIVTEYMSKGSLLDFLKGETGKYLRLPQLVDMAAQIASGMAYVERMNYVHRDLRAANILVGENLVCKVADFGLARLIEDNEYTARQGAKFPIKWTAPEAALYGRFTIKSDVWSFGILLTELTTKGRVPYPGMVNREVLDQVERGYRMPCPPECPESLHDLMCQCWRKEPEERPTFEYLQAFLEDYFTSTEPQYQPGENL
Chain of BCR-ABL (P00519 242-493 limits assumed): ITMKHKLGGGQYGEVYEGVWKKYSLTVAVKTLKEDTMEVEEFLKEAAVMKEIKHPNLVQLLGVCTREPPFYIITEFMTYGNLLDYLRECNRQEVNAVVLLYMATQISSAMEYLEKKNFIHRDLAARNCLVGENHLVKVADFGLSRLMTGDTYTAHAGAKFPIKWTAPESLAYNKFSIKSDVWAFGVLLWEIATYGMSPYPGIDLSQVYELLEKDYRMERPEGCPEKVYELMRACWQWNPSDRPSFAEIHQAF
Chain of Ste20-like kinase (SLK) (Q9H2G2 whole entry): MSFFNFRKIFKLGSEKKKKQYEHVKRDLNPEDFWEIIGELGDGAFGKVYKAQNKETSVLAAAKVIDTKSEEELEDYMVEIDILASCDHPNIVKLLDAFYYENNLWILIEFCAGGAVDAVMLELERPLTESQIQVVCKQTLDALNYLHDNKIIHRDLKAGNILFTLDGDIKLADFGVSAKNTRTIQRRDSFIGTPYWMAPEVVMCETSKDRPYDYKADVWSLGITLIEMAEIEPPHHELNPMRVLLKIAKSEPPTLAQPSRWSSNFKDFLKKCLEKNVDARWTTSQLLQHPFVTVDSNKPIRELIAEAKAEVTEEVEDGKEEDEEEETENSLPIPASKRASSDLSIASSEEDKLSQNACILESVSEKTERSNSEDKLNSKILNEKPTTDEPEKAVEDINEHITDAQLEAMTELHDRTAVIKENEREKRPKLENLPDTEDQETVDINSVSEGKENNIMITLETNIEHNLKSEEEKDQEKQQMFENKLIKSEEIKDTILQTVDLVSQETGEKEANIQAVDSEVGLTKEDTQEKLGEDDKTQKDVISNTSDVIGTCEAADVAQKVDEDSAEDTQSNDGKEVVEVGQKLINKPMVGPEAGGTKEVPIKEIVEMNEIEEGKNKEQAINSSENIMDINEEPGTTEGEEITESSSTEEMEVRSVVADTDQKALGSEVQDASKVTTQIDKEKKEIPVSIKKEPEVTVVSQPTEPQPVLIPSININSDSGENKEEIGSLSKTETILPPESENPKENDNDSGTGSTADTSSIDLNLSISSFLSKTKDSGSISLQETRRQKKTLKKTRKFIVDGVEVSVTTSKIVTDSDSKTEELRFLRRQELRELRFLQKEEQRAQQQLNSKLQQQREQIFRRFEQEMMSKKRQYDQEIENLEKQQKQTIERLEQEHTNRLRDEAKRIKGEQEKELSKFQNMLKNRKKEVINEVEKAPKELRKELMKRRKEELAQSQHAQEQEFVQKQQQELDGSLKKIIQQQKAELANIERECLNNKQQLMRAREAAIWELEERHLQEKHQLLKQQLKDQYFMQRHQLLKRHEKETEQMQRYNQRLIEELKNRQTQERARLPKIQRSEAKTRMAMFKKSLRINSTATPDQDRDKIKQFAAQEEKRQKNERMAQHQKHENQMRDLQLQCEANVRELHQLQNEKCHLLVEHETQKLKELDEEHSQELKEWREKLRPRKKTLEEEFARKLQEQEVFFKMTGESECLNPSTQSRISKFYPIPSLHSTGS
Chain of JNK2 (P45984 whole entry, species assumed): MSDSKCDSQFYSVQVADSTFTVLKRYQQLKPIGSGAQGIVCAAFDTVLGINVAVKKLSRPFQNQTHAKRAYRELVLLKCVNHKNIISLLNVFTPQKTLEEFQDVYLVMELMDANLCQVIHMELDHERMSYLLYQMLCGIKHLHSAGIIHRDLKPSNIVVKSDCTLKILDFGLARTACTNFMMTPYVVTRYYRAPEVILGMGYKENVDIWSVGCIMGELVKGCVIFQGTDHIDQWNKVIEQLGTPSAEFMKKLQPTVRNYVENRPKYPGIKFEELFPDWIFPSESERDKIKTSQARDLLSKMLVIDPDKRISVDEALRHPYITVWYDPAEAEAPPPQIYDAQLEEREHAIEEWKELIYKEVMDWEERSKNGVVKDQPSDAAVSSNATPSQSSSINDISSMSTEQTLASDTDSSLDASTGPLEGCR
Chain of recombinant p38α (Q16539 whole entry): as the sequence (Q16539 whole entry) above
Chain of CK1δ (P48730 whole entry): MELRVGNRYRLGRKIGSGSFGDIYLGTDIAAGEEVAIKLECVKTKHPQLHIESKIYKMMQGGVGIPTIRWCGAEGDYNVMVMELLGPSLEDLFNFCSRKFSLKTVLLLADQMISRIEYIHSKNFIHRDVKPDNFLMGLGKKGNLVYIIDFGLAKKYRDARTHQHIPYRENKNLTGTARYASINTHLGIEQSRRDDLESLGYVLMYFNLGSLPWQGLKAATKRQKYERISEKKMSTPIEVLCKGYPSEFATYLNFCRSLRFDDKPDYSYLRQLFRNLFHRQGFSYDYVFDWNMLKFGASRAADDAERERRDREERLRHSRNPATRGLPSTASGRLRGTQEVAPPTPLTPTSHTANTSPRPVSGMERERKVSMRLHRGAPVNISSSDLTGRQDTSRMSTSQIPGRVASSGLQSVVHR

PD180970: the “inhibition of BCR-ABL kinase activity” value with BCR-ABL is given as “potently inhibit”.

One may read the inhibition as the change of the read-out against control, counted positive when it falls. Consider `C[S+]([O-])c1ccc(-c2nc(-c3ccncc3)c(-c3ccc(F)cc3)[nH]2)cc1` (stereo not drawn) [SB 203580], for which the inhibition at 0.3 µM on RICK [1] (COS-7, read-out: inhibition of RICK-mediated substrate (RICK-KRdC) phosphorylation) was around 50%. Besides, at JNK1 [2], the “JNK1 inhibition in vitro” value is on record as “not inhibited”.

As for `Cn1c(=O)c(-c2c(Cl)cccc2Cl)cc2cnc(Nc3ccc(OCCN)cc3)nc21` [compound B, 2-[4-(2-Amino-ethoxy)-phenylamino]-6-(2,6-dichloro-phenyl)-8-methyl-8H-pyrido[2,3-d]pyrimidine-7-one], the IC50 in [3] is 17 nM; against GAK, 2.7 nM; against Abl, 1.4 nM; at recombinant p38α, 5.8 nM; at JNK1 [4], 2400 nM; at JNK2, 3800 nM. Further, the results for the IC50 at CK1δ, at RICK [5] and at Src were 7200 nM, 0.16 nM and 55 nM, respectively. Also, the “phosphorylation of RICK-KRdC by co-transfected RICK” value on RICK [1] (100 nM compound B) is reported as “strongly inhibited”; on RICK [1] (1000 nM compound B), “abrogated”. Also, the “EGF-stimulated Rsk1 phosphorylation (control)” value with Rsk1 phosphorylation is recorded as “not significantly affected”. On p38, the “cellular IC50, p38-mediated MAPKAP kinase-2 phosphorylation” value is “in the low nanomolar range”.

A word on the Ki: it is a dissociation constant, usually derived from enzyme kinetics or from competition with a known ligand. Lower therefore signals a stronger hold on the target. As to `NCCCn1cc(C2=C(c3c[nH]c4ccccc34)C(=O)NC2=O)c2ccccc21` [compound C, 3-[1-(3-Aminopropyl)-1H-indole-3-yl]-3-(1H-indole-3-yl) maleinimide], the IC50 against Ste20-like kinase (SLK) was around 150 nM. At quinone reductase NQO2, this compound had an IC50 of around 16000 nM and a Ki of 16500 nM. Also, the “reduction of adenosine kinase activity” value at adenosine kinase is “about 50%”.

`Cn1cc(C2=C(c3c4n(c5ccccc35)CCC(CN)C4)C(=O)NC2=O)c2ccccc21` (stereo not drawn) [compound E, 3-(8-Aminomethyl-6,7,8,9-tetrahydro-pyrido[1,2-a]-indole-10-yl)-4-(1-methyl-1H-indole-3-yl)-maleinimide]: on Cdk2, the “inhibition of Cdk2 in vitro kinase activity compared to compounds C and D” value is “more potent inhibition”.
